Tests used:
5HT1A receptor [1] = experiment: Serotonin syndrome test (antagonism of 8-OH-DPAT-induced signs); format: in vivo, rats; conditions: 4 point scale 0-3; for flat body posture (FBP) score / lower lip retraction (LLR) score / LLR score / FBP score: 8-OH-DPAT alone scores 3
Procedure: Adult male rats are placed singly in clear plastic cages for behavioral observations. Preferably, the cages have metal screen lids and fresh sawdust covering the floor. The animals are adapted to the cages for a short period, and then the compounds to be tested are administered at doses and route determined by the experimenter, based on the probable potency of the test compounds. After 15 minutes, each rat is then given a subcutaneous injection of 0.1 mg/kg of 8-hydroxy-2-dipropylaminotetralin (8-OH-DPAT). Fifteen minutes after administration of the 8-OH-DPAT, the animals are evaluated for evidence of the following signs: reciprocal forepaw treading; Straub tail (rigid or corkscrew); lateral head weaving; hind limb abduction; resting tremor, especially of the head and forepaws; lower-lip retraction; and flat-body posture.
Those signs are produced by 8-OH-DPAT, and the administration of 5HT1A antagonists is able to block or greatly attenuate the appearance of the signs.

5HT1A receptor [2] = experiment: as above; format: in vivo, rats; conditions: exception at 1.0 or 10 mg/kg s.c. (dose not specified); 4 point scale 0-3
5HT1A receptor [3] = target: 5HT1A receptor (Homo sapiens, UniProt P08908); conditions: partial agonist; cited from earlier work
[4] = 3 mg/kg test compound s.c., then 8-OH-DPAT 0.1 mg/kg s.c.

Sequence of 5HT1A receptor (Homo sapiens, UniProt P08908) (P08908 whole entry): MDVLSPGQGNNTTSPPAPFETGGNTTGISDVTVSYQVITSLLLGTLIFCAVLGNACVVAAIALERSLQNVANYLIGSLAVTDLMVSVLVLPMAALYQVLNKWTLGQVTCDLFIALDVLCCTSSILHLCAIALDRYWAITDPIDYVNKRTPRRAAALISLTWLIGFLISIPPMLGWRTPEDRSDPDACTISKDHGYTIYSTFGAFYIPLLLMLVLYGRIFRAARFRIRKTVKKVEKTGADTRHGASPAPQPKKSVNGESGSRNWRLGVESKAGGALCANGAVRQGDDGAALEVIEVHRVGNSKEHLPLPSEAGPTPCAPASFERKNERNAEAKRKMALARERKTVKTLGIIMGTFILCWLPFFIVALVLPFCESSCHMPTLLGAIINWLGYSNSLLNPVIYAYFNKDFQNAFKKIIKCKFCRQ

SMILES	lower lip retraction (LLR) score (5HT1A receptor [1]; [4])	LLR score (5HT1A receptor [1]; 1 mg/kg test compound s.c.)	LLR score (5HT1A receptor [1]; 10 mg/kg test compound s.c.)	FBP score (5HT1A receptor [1]; 10 mg/kg test compound s.c.)	also measured
O=C(O)CCC(=O)O.O[C@@H](CNC1CCCCC1)COc1cccc2[nH]ccc12 [(S)-(-)-1-(4-indolyloxy)-3-cyclohexylamino-2-propanol, butanedioate salt]	completely abolished	–	–	–	flat body posture (FBP) score (5HT1A receptor [1]; 0.3 mg/kg test compound s.c.): below 2; lower lip retraction (LLR) score (5HT1A receptor [1]; 0.3 mg/kg test compound s.c.): below 2; flat body posture (FBP) score (5HT1A receptor [1]; [4]): completely abolished
OC(CNC1CCCCCC1)COc1cccc2[nH]ccc12 (stereo not shown) [1-(4-indolyloxy)-3-cycloheptylamino-2-propanol]	≤ 1.75	≤ 1.75	0	–	FBP score (5HT1A receptor [1]; doses of 1 mg/kg and above s.c.): below 1
OC(CN[C@@H]1C[C@H]2CC[C@@H]1C2)COc1cccc2[nH]ccc12 (relative stereo) [(exo)-1-(4-indolyloxy)-3-norbornylamino-2-propanol]	–	≤ 1	≤ 1	≤ 0.5	LLR score at 20 minutes after administration of 8-OH-DPAT (5HT1A receptor [2]): 1.25; FBP score (5HT1A receptor [1]; 1.0 mg/kg test compound s.c.): ≤ 0.5
O=C1CC2(CCCC2)CC(=O)N1CCCCN1CCN(c2ncccn2)CC1 [Buspirone]	–	–	–	–	antagonistic activity at the 5HT1A receptor (5HT1A receptor [3]): about 30%
O=C(O)C(=O)O.OC(CNCCCCc1ccccc1)COc1cccc2[nH]ccc12 (stereo not shown) [1-(4-indolyloxy)-3-(4-phenylbutylamino)-2-propanol, oxalate salt]	–	–	–	1.25	peak LLR score (5HT1A receptor [1]; 10 mg/kg test compound s.c., score quickly declined from its peak): 2
